According to US20230181485A1, “Uses and Formulations of Cannabinoids” (priority 2020, published 2023):
pIC50: −log10 of the molar value. Like-named read-outs stand apart in the source and are kept apart here.

What was measured:
[1] = system: SARS-CoV-2 virus (isolate BetaCoV/Germany/BavPat1/2020 p. 1); experiment: antiviral assay, Vero E6 cells with SARS-CoV-2, focus forming units; type: cell-based; conditions: 24 h
[2] = systemic exposure after i.p. and oral application in mice and rats (Deiana et al.); type: in vivo; conditions: 20 mg/kg, assuming dose-proportional plasma concentrations
Method: A comparative investigation for systemic exposure after i.p. and oral application of CBD in mice and rats has shown that 120 mg/kg as a single dose leads to a maximum plasma concentration of 14,000 ng/ml in mice (S. Deiana et al. (2012). Plasma and brain pharmacokinetic profile of cannabidiol (CBD), cannabidivarine (CBDV), Delta(9)-tetrahydrocannabivarin (THCV) and cannabigerol (CBG) in rats and mice following oral and intraperitoneal administration and CBD action on obsessive-compulsive behaviour. Psychopharmacology (Berl) 219(3): 859-73).

[3] = cited from earlier work
[4] = mice; 120 mg/kg single dose; cited from earlier work
[5] = system: IL-6 secretion; conditions: majority of cellular models; cited from earlier work
[6] = system: LPS-induced acute lung injury; conditions: cited from earlier work
[7] = system: LPS-induced acute lung injury; conditions: 20 mg/kg, 6 h after LPS; cited from earlier work
[8] = system: human mononuclear cells; conditions: nanomolar or micromolar concentrations; cited from earlier work
[9] = system: human neutrophils; conditions: cited from earlier work
[10] = system: CD83 dendritic cell activation marker; conditions: dendritic cells from individuals with HIV infection; cited from earlier work
[11] = system: microglial cells; conditions: 1-16 μmol/l; cited from earlier work
[12] = system: chemically induced acute hepatitis; conditions: 25 mg/kg; cited from earlier work
[13] = system: activated memory T cell line; conditions: 1-5 μmol/l, cited from earlier work
[14] = system: ischemia-reperfusion-induced kidney injury; conditions: 10 mg/kg after induced kidney injury; cited from earlier work
[15] = healthy rats, cited from earlier work
[16] = molecular target: T1, IL-6 receptor (Homo sapiens, UniProt P08887); conditions: preliminary clinical data; cited from earlier work
T1 construct: host or cells: patients (in vivo)
T1 sequence (P08887 20-468): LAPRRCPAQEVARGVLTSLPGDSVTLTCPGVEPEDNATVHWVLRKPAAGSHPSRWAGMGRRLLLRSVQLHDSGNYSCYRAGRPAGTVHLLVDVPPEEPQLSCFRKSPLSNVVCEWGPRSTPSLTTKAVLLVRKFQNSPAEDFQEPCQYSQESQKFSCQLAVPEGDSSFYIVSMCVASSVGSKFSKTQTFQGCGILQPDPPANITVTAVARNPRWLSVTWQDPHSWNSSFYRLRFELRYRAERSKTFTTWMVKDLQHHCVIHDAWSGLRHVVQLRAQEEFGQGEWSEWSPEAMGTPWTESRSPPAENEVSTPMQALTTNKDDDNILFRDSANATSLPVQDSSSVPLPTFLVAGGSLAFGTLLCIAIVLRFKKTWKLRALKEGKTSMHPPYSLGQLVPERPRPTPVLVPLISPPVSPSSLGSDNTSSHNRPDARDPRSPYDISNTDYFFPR

C=C(C)[C@@H]1CCC(C)=C[C@H]1c1c(O)cc(CCCCC)cc1O [CBD, 2-[(1R,6R)-3-methyl-6-(1-methylethenyl)-2-cyclohexen-1-yl]-5-pentyl-1,3-benzenediol]
FFU values (viral activity of SARS-CoV-2 in vitro) ([1]; 0.25-5 μM): reduce the FFU values in a dose dependent manner
pIC50 ([1]; Severe acute respiratory syndrome coronavirus 2, Vero C1008, Vero E6 cells, 5 μM values excluded, read-out: IC50 of inhibition of viral activity): 6.10
target peak exposure [2]: 2,300 ng/ml
log P [3]: about 6.1
maximum plasma concentration [4]: 14,000 ng/ml
effective concentration for suppressive effect on IL-6 secretion [5]: ~5 µM
number of leukocytes including macrophages and neutrophils in bronchoalveolar lavage fluid ([6]; 20 mg/kg, mice after LPS-induced lung inflammation): decreases
total leukocytes migration, myeloperoxidase activity, pro-inflammatory cytokine production including TNF-α and IL-6 and vascular permeability ([6]; 0.3-80 mg/kg intraperitoneal, 60 minutes before LPS instillation): significantly decreased
dose at which effects reached a nearly maximum extent ([6]; prophylactic application, intraperitoneal): 20 mg/kg
mechanical lung function, leukocyte migration, myeloperoxidase activity, vascular permeability, cytokines/chemokines [7]: improved mechanical lung function
release of pro-inflammatory cytokines [8]: suppressed
migration of human neutrophils [9]: inhibits
CD83 dendritic cell activation marker [10]: suppresses
apoptosis in microglial cells [11]: induces apoptosis
expression of MDSCs [12]: induces
pro-inflammatory cytokines such as IL-2, TNF-α, and IL-6 [12]: reduction
autoantigen-specific Th17 cell phenotype (IL-17) ([13]; dose-dependently): reduced
IL-6 production and secretion [13]: decreased
production of IL-10 [13]: increased
effect on induced kidney injury (Treg17/Th17 levels) [14]: renoprotective
numbers of NK cells and NKT cells ([15]; 2.5 mg/kg per day): increased
numbers of NK cells and NKT cells ([15]; 5 mg/kg per day): not affected
number of T cells including T helper cells and cytotoxic T cells and of B cells ([15]; daily 5 mg/kg): significantly reduced

tocilizumab: humanized monoclonal antibody against the IL-6 receptor
clinical effect in patients with severe SARS-CoV-2 pneumonia [16]: beneficial effects
